What is called IC50 is the concentration needed to halve the response being measured.

This is an account of results in patent US5637609A, “2-phenylpyrrole derivatives as dopamine D3 receptor antagonists” (SmithKline Beecham plc, priority 1993, dated 1997).

The assay deals with T1, human D3 dopamine receptors (Homo sapiens, UniProt P35462).
T1 construct: expressed in transfected cells; host or cells: CHO cells
In words: [125I] iodosulpride displacement binding to cloned human D3 dopamine receptors expressed in CHO cells. The following applies: displacement of 0.1 nM [125I] iodosulpride, CHO cell membranes, 30 min at 37° C.; read-out: IC50 values at the human D3 receptor. Here is the method:
The inhibition constants (Ki) of test compounds for displacement of [^125 I] iodosulpride binding to human D2 and D3 dopamine receptors expressed in CHO cells have been determined. […] Cultures were grown as monolayers or in suspension in standard cell culture media. Cells were recovered by scraping (from monolayers) or by centrifugation (from suspension cultures), and were washed two or three times by suspension in phosphate buffered saline followed by collection by centrifugation. Cell pellets were stored frozen at -40° C. Crude cell membranes were prepared by homogenisation followed by high-speed centrifugation, and characterisation of cloned receptors achieved by radioligand binding.
Cell pellets were gently thawed at room temperature, and resuspended in about 20 volumes of ice-cold 50 mM Tris salts (pH 7.4@37° C.), 20 mM EDTA, 0.2M sucrose. The suspension was homogenised using an Ultra-Turrax at full speed for 15 sec. The homogenate was centrifuged at 18,000 r.p.m for 20 min at 4° C. in a Sorvall RC5C centrifuge. […] The final pellet was resuspended in 50 mM Tris salts (pH 7.4@37° C.), and the protein content determined using bovine serum albumin as a standard (Bradford, M. M. (1976) Anal. Biochem. 72, 248-254). […]
Competition curves were analysed simultaneously whenever possible using non-linear least-squares fitting procedures, capable of fitting one, two or three site models.

Counter-ions that a name gives are not always drawn. A value given as a limit tells only on which side of the number the result lay.

T1 sequence (P35462 whole entry): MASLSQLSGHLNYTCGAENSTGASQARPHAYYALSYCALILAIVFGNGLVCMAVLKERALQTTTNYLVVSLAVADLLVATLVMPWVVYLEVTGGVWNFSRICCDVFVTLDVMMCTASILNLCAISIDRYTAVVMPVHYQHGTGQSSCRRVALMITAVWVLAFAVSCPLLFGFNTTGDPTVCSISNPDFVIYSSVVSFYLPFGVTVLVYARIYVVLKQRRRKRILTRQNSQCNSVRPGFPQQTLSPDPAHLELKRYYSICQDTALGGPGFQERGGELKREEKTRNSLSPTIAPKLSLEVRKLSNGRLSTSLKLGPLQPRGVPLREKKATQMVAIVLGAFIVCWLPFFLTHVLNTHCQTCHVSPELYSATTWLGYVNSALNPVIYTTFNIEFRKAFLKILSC

Turning to `CCN(Cc1ccc(-c2cc(S(=O)(=O)CC)ccc2OC)[nH]1)C1CCCc2ccccc21` (centres unmarked) [Example 1, 2-(5-Ethylsulfonyl-2-methoxyphenyl)-5-[N-ethyl-N-1-(1,2,3,4-tetrahydronaphthyl)aminomethyl]-1H-pyrrole hydrochloride], the IC50 was below 5 nM.
Take `CCN(Cc1ccc(-c2cc(S(=O)(=O)CC)ccc2OC)[nH]1)C1CCc2ccccc21` (centres unmarked) [Example 2, 2-(5-Ethylsulfonyl-2-methoxyphenyl)-5-[N-ethyl-N-1-(indanyl)aminomethyl]-1H-pyrrole, hydrochloride]: the IC50 was below 5 nM.
